Experimental data taken from publication PMC6080781, “ATP competes with PIP2 for binding to gelsolin” (PLoS ONE, 2018).

Columns and labels:
gelsolin [1] = target: T1, gelsolin (Homo sapiens, UniProt P06396); experiment: Confocal microscopy of Alexa488-labeled gelsolin on PIP2-containing phospholipid vesicles; conditions: 0.5 mM ATP, absence of divalent cations
T1 construct: His tag (cleaved yes); made in house; host or cells: E. coli Rosetta2 (DE3) pLysS, pSY5 plasmid
Description: Phospholipid vesicles were prepared by a modified protocol from James H. Morrissey, Dept. of Biochemistry, University of Illinois at Urbana-Champaign, Urbana, IL 61801, USA (https://tf7.org). A mixture of 1% PIP2 (PtdIns-(4,5)-P2(1,2-dipalmitoyl)) (Cayman Chemicals), 79% PC (L-α-phosphatidylcholine) (Sigma-Aldrich) and 20% PS (3-sn-phosphatidyl-L-serine) (Sigma-Aldrich) was dissolved in 20 μM rhodamine 590 N-succinimidyl ester (Sigma-Aldrich) in chloroform. […]
10% (v/v) rhodamine590-filled phospholipid vesicles and 5 μM Alexa488-labeled gelsolin were incubated together and a drop of the mixture was placed on a clean glass slide, which was then covered by and separated from a second slide by a parafilm gasket. […] Fluorescence emission-based imaging was carried out using a Zeiss LSM 510 META Confocal Microscope. The two different fluorophores were detected in two separate channels; Alexa488 (gelsolin) was excited by 477 nm laser light and emission was detected in the 505–530 nm channel, while rhodamine590 (phospholipid vesicles) was excited by 545 nm laser light and emission was detected in the 585–630 nm channel.

calcium-free gelsolin = target: calcium-free gelsolin; parameters: method as in PMID 10336615; conditions: cited from earlier work
gelsolin [2] = conditions: equilibrium dialysis, high NaCl concentrations; read-out: dissociation constant for gelsolin; cited from earlier work
gelsolin [3] = target: T1, gelsolin; experiment: Labeled/unlabeled ATP competition on gelsolin (ATP-N anisotropy); type: binding; conditions: absence of calcium
Description: The dissociation constants for ATP and PIP2 were calculated using a hyperbolic model from anisotropy data that had reached saturation during the gelsolin titrations Eq 2: r=rf+(rb−rf)(Kd+[G]+[L]−(Kd+[G]+[L])^2−4[G][L]/2[L]) (2) where rf is the anisotropy of free ligand, rb is the anisotropy of gelsolin-bound ligand, [L] is the total concentration of ligand, Kd is the dissociation constant and [G] is the total concentration of gelsolin. The anisotropy of 0.5 μM ATP-N was measured in the presence of gelsolin concentrations: 0, 0.2, 1.5, 2, 3, 5 and 8 μM. Saturation was evident at 5 μM characterized by an anisotropy value of 0.15 ± 0.006. […]
Supplementary file pone.0201826.s002.pdf: S2 Fig ATP binding to gelsolin under actin polymerization conditions. (A) The calcium-dependent gelsolin binding affinity for ATP under actin polymerization conditions was determined by monitoring the change in ATP-N anisotropy on gelsolin titration at different calcium ion concentrations. Each data point arises from the Kd calculated from a titration similar to Fig 1A. […] (B) The anisotropy of ATP-N (0.5 μM) bound to gelsolin (5 μM) was measured upon titrating with unlabeled ATP in the absence of calcium. […]

gelsolin [4] = target: T1, gelsolin; experiment: Steady-state fluorescence anisotropy of PIP2-F binding to gelsolin; conditions: 5 μM gelsolin
Description: His-tagged human wild-type gelsolin was expressed in E. coli strain Rosetta2 (DE3) pLysS cells from a pSY5 plasmid. […] Traces of calcium were removed by dialysis (2 mM Tris-HCl, 1 mM EGTA, pH 7.4, overnight). Rabbit skeletal muscle actin was prepared from acetone powder (Pel-Freez Biologicals) in a protocol modified from Spudich and Watt. Actin was stored in buffer A (2 mM Tris-HCl, 0.2 mM ATP (ATP disodium trihydrate, Sigma-Aldrich), 0.1 mM CaCl2 (pCa 4), 0.1 mM DTT and 0.005% NaN3, pH 7.4). Alexa Fluor^TM 488 C5 Maleimide (Life Technologies) was used to label cysteine residues of gelsolin based on the manufacturer’s recommendations (Thermo Fisher Scientific).
We used a fluorescent derivative of PIP2 (PtdIns-(4,5)-P2-fluorescein, Cayman Chemicals, NU-10010388, λex = 493 nm, λem = 520 nm, abbreviated as PIP2-F) and a fluorescent derivative of ATP (N^6-(6-amino)hexyl-ATP-ATTO-532, Jena Bioscience, NU-805-532, λex = 532 nm, λem = 553 nm, abbreviated as ATP-N) as probes for the binding of PIP2 and ATP to gelsolin. Fluorescence intensities were measured on a Safire^2 monochromator microplate reader (TECAN) at 22°C. Steady-state fluorescence anisotropy values were determined according to Eq 1 [65], where IVV and IVH, respectively, are the intensities of vertically and horizontally polarized emission on excitation with vertically polarized light, with the correction factor, G, being the ratio of IVH/IVV.
The dissociation constants for ATP and PIP2 were calculated using a hyperbolic model from anisotropy data that had reached saturation during the gelsolin titrations Eq 2: r=rf+(rb−rf)(Kd+[G]+[L]−(Kd+[G]+[L])^2−4[G][L]/2[L]) (2) where rf is the anisotropy of free ligand, rb is the anisotropy of gelsolin-bound ligand, [L] is the total concentration of ligand, Kd is the dissociation constant and [G] is the total concentration of gelsolin. The anisotropy of 0.5 μM ATP-N was measured in the presence of gelsolin concentrations: 0, 0.2, 1.5, 2, 3, 5 and 8 μM. […] The calcium and magnesium sensitivities of ATP binding to gelsolin were characterized by the change in anisotropy of solutions containing 0.5 μM ATP-N in the presence of 5 μM of gelsolin over a range of divalent cation concentrations of pCa 2–12 or pMg 1–12, where pCa and pMg refer to[…]. […] Anisotropy of 0.5 μM or 0.25 μM solutions of PIP2-F in the presence of 5 μM gelsolin was used to probe the changes in binding of the complexes under different calcium, magnesium, salt and ATP conditions.

[5] = Calcium-dependent fluorescence emission of FURA-2FF; type: binding; conditions: inferred from unchanged FURA-2FF profile with 20 μM PIP2
Description: Supplementary file pone.0201826.s005.pdf: S5 Fig Assessment of the effects of calcium and ATP on the binding of ATP-N and PIP2-F to gelsolin. (A) Kds were calculated from the fit data with Eq 2 of gelsolin:PIP2-F binding under different calcium concentrations in the absence or presence of ATP. In the absence of ATP, PIP2-F (0.5 μM) binds to gelsolin, as reflected by thehigh affinity, across a wide range of calcium concentrations. […] (B) In the absence of gelsolin, calcium directly precipitates ATP-N (C, open triangles) with a half-maximum value of 70.4 ± 0.7 μM. Magnesium has no effect on the fluorescence emission of ATP-N either in the absence (M, orange circles) or presence of 10 μM calcium (MC, purple squares). Data were fitted with simple sigmoidal curves. (C) The reported FURA-2FF dissociation constant for calcium ions is 25 μM (A.G. Scientific Inc.). The calcium-dependent fluorescence emission profile of FURA-2FF (2 μM) over pCa range of 5–7 was similar in the presence and absence of 20 μM PIP2, which were fitted with simple sigmoidal curves. […] The measurement was carried out with a Perkin Elmer LS-55 spectrofluorimeter (λex = 340 nm, λem = 505 nm). (PDF) Click here for additional data file.

[6] = Critical micelle concentration by dynamic light scattering; type: physicochemical
Description: tested, PIP2-F was free from micelle formation at concentrations of 0.5 µM or below, whereas […]
Methods: The critical micelle concentrations of PIP2 and 1-(1-octadecanoyl-fluorescein-2R-octadecanoylphosphatidyl)inositol-4,5-bisphosphate (Cayman Chemical, abbreviated as PIP2-F) were determined by dynamic light scattering (Huang et al., 2011). Fifty microliter samples were prepared by serial dilution of PIP2 or PIP2-F into a low salt buffer (2 mM Tris-HCl, pH 7.4), or the same buffer supplemented with 100 mM KCl, 1 mM MgCl2, and/or 1 mM CaCl2. After incubation for 30 min, the samples were centrifuged at 15,000 x g for 10 min, transferred into a 384-well clear bottom plate, and light scattering was measured using a Wyatt Dynapro plate reader at room temperature. The concentrations of PIP2-F were subsequently determined by light absorbance at 494 nm with a Nanodrop spectrophotometer. […]
Huang, W., Jiang, D., Wang, X., Wang, K., Sims, C. E., Allbritton, N. L. and Zhang, Q.

T1 sequence (P06396 28-782): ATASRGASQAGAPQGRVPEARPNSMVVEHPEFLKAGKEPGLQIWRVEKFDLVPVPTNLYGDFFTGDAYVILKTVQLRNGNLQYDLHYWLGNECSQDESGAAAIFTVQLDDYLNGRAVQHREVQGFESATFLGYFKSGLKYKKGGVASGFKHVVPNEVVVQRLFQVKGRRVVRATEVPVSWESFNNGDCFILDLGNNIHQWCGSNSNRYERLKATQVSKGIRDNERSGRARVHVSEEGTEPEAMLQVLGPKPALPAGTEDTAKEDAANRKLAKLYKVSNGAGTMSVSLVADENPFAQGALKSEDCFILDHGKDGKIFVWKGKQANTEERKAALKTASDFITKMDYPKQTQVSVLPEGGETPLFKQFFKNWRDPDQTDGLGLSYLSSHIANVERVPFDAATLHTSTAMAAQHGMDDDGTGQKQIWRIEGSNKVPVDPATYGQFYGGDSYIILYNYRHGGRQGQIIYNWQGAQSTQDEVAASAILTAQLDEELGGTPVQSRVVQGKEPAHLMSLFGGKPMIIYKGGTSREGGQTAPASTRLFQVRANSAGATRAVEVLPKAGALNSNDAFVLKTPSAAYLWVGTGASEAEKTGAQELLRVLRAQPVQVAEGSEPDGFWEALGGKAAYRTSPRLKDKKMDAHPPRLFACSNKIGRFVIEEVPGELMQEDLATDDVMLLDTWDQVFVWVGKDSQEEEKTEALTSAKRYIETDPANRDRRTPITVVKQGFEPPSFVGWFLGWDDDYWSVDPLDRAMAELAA

Compound | release of gelsolin-Alexa488 from PIP2-containing vesicles (gelsolin [1]) | Kd (calcium-free gelsolin; Gremm and Wegner, read-out: Kd of calcium-free gelsolin for ATP) | ATP binding to gelsolin (calcium-free gelsolin; solutions with more than 10 μM Ca2+ (pCa 5)) | Kd (gelsolin [2]) | ATP concentration sufficient to remove the gelsolin bound ATP-N (gelsolin [3]; 0.5 μM ATP-N, 5 μM gelsolin) | Kd (gelsolin [3]; 50 mM KCl, 1 mM MgCl2 (actin polymerizing salt), competition with ATP-N) | effect of ATP on PIP2-F anisotropy (gelsolin [4]; 0.5 mM ATP, 0.25 μM PIP2-F, 100 mM K+, 1 mM Mg2+, entire calcium range, absence and presence of 50 μM actin) | effect of ATP on the gelsolin/PIP2-F complex (gelsolin [4]; 0.2 or 0.5 mM ATP, 0.5 μM PIP2-F) | Kd [5] | CMC of PIP2 ([6]; 100 mM KCl and 1 mM MgCl2, nominal concentrations) | CMC of PIP2 ([6]; 100 mM KCl, nominal concentrations) | CMC of PIP2 ([6]; absence of cations, nominal concentrations) | CMC of PIP2 ([6]; calcium in the buffer, considered an overestimation)
Nc1ncnc2c1ncn2[C@@H]1O[C@H](COP(=O)(O)OP(=O)(O)OP(=O)([O-])[O-])[C@@H](O)[C@H]1O.O.O.O.[Na+].[Na+] [ATP, ATP disodium trihydrate] | the majority of gelsolin-Alexa488 was released from the vesicles | 32000 nM | No ATP binding to gelsolin is detectable | 280 nM | 50 µM | 2200 nM | almost complete loss of PIP2-F anisotropy | complete dissociation of the gelsolin/PIP2-F complex |  |  |  |  | 
phosphatidylinositol 4,5-bisphosphate [PIP2] |  |  |  |  |  |  |  |  | ≥ 25000 nM | < 1 µM | 2 µM | 20 µM | ~ 10 μM
